Biological target: 17β-HSD1 (Homo sapiens (Human), UniProt P14061)
Assay: 17β-HSD1 test assay (recombinant protein from Sf9 insect cells, 3H-estrone/NADPH)
Format: biochemical
Details: for inhibition at 1 µM: read-out: HSD 1 μM (% inhibition of HSD1); for inhibition at 0.1 µM: read-out: HSD1 100 nM (% inhibition)
Procedure: Recombinant protein obtained from Sf9 insect cells (0.1 μg/ml) is incubated with 20 mM KH2PO4, pH 7.4, 30 nM ^3H-estrone and 1 mM NADPH for 30 min at RT in the presence of the potential inhibitor in a concentration of 1 μM or 100 nM. The stock solutions of the compounds are prepared in DMSO (dimethylsulfoxide) so that the final concentration of DMSO in the sample is 1%. After the prescribed incubation time, the reaction is quenched by adding trichloroacetic acid (10% final concentration). The samples are centrifuged in microtitration plates at 400 rpm for 10 min, and the supernatants are charged on a reversed-phase HPLC equipped with a Waters Symmetrie C18 column and Waters Sentry Guard column. The isocratic HPLC run is performed at RT with a flow rate of 1 ml/min and acetonitrile/water 48:52 as the eluent. The radioactivity was measured by means of a Packard Flow Scintillation Analyzer. […]

17β-HSD1, sequence (P14061 whole entry): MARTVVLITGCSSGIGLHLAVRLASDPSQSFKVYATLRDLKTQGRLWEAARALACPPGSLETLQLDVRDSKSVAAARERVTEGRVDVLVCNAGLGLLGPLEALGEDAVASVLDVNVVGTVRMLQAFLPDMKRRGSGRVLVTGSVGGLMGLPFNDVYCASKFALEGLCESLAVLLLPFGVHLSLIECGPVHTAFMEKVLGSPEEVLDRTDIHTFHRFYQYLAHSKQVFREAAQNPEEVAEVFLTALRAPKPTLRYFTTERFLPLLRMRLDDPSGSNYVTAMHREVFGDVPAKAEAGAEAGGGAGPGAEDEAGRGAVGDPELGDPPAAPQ

inhibition at 1 µM (inhibitor 1 μM) [%]	inhibition at 0.1 µM (inhibitor 100 nM) [%]	HSD1 100 nM (% inhibition) (inhibitor 100 nM) [%]	HSD 1 μM (% inhibition of HSD1) (inhibitor 1 μM) [%]	Compound
13.6	< 10			O=C(CCc1cc(O)cc(-c2ccc3cc(O)ccc3c2)c1)Nc1ccccc1 [Compound 34, 3-[3-Hydroxy-5-(6-hydroxynaphthalene-2-yl)phenyl]-N-phenylpropionamide]
78	46.4			O=S(=O)(Nc1cccc(-c2c(O)ccc3cc(-c4cccc(O)c4)ccc23)c1)c1ccc(Cl)s1 [Compound 74, 5-chloro-N-{3-[2-hydroxy-6-(3-hydroxyphenyl)-1-naphthyl]-phenyl}thiophene-2-sulfonamide]
< 10	< 10			Oc1ccc(-c2cc(O)cc(-c3ccc4cc(O)ccc4c3)c2)cc1 [Compound 27, 5-(6-Hydroxy-2-naphthyl)-1,1′-biphenyl-3,4′-diol]
< 10	< 10			OCc1cccc(-c2ccc3cc(O)ccc3c2)c1 [Compound 10, 6-[3-(hydroxymethyl)-phenyl]-2-naphthol]
< 10	< 10			Oc1cc(-c2ccc3cc(O)ccc3c2)cc(-c2ccc3cc(O)ccc3c2)c1 [Compound 28, 6-[3-Hydroxy-5-(6-hydroxy-2-naphthyl)phenyl]-2-naphthol]
80.6	71.7			O=S(=O)(Nc1cccc(-c2c(O)ccc3cc(-c4cccc(O)c4)ccc23)c1)c1cccs1 [Compound 87, N-{3-[2-hydroxy-6-(3-hydroxyphenyl)-1-naphthyl]phenyl}thiophene-2-sulfonamide]
< 10	< 10			Nc1cccc(-c2ccc3cc(O)ccc3c2)c1 [Compound 23, 6-(3-Aminophenyl)-naphthalen-2-ol]
< 10	< 10			Oc1ccc(-c2ccc3cc(O)ccc3c2)cc1 [Compound 20, 6-(4-Hydroxyphenyl)-2-naphthol]
56.9	24			Oc1cccc(-c2ccc3cc(O)ccc3n2)c1 [Compound 12, 2-(3-Hydroxyphenyl)quinolin-6-ol]
33				O=S(=O)(c1ccccc1)c1c(O)ccc2cc(-c3cccc(O)c3)ccc12 [Compound 91, 6-(3-Hydroxyphenyl)-1-(phenylsulfonyl)-2-naphthol]
84	37			O=C(Nc1ccccn1)c1c(O)ccc2cc(-c3cccc(O)c3)ccc12 [Compound 49, 2-Hydroxy-6-(3-hydroxyphenyl)-N-(pyridin-2-yl)-1-naphthamide]
		72.8	78.9	N-{3-[2-hydroxy-6-(3-hydroxyphenyl)-1-naphthyl]phenyl-3-nitrobenzenesulfonamide [Compound 75]
< 10	< 10			Oc1ccc(-c2cnc3cc(O)ccc3c2)cc1 [Compound 15, 3-(4-Hydroxyphenyl)quinolin-7-ol]
< 10	< 10			Oc1ccc(-c2ccc3c(O)cccc3c2)cc1 [Compound 21, 6-(4-Hydroxyphenyl)-1-naphthol]
< 10	< 10			Oc1ccc2cc(-c3ccccc3)ccc2c1 [Compound 2, 6-Phenylnaphthalene-2-ol]
62.4	27.8			O=C(c1c(O)ccc2cc(-c3cccc(O)c3)ccc12)N1CCOCC1 [Compound 44, (2-Hydroxy-6-(3-hydroxyphenyl)naphthalene-1-yl)(morpholino)methanone]
< 10	< 10			CNC(=O)c1cc(O)cc(-c2ccc3cc(O)ccc3c2)c1 [Compound 29, 3-Hydroxy-5-(6-hydroxynaphthalen-2-yl)-N-methylbenzamide]
53	< 10			O=C(Nc1nccs1)c1c(O)ccc2cc(-c3cccc(O)c3)ccc12 [Compound 46, 2-Hydroxy-6-(3-hydroxyphenyl)-N-(thiazol-2-yl)-1-naphthamide]
< 10	< 10			Oc1ccc2cc(-c3ccsc3)ccc2c1 [Compound 5]
56.9	24			Oc1cccc(-c2cnc3cc(O)ccc3c2)c1 [Compound 16, 3-(3-Hydroxyphenyl)quinolin-7-ol]
< 10	< 10			CC(=O)Nc1ccc(-c2ccc3cc(O)ccc3c2)cc1O [Compound 35, N-[2-Hydroxy-4-(6-hydroxy-2-naphthyl)phenyl]acetamide]

inhibition at 1 µM (inhibitor 1 μM) [%]	inhibition at 0.1 µM (inhibitor 100 nM) [%]	HSD1 100 nM (% inhibition) (inhibitor 100 nM) [%]	HSD 1 μM (% inhibition of HSD1) (inhibitor 1 μM) [%]	Compound
75.8	36.3			O=C(O)c1cccc(-c2ccc3cc(O)ccc3c2)c1 [Compound 7, 3-(6-hydroxy-2-naphthyl)benzoic acid]
40	< 10			O=C(Nc1ncccn1)c1c(O)ccc2cc(-c3cccc(O)c3)ccc12 [Compound 50, 2-Hydroxy-6-(3-hydroxyphenyl)-N-(pyrimidin-2-yl)-1-naphthamide]
< 10	< 10			O=C(Nc1ccccc1)c1cc(O)cc(-c2ccc3cc(O)ccc3c2)c1 [Compound 30, 3-Hydroxy-5-(6-hydroxynaphthalene-2-yl)-N-phenylbenzamide]
19.6	< 10			O=C(/C=C/c1cc(O)cc(-c2ccc3cc(O)ccc3c2)c1)Nc1ccccc1 [Compound 32, (E)-3-[3-Hydroxy-5-(6-hydroxynaphthalene-2-yl)phenyl]-N-phenylacrylamide]
< 10	< 10			CNC(=O)CCc1cc(O)cc(-c2ccc3cc(O)ccc3c2)c1 [Compound 33, 3-[3-Hydroxy-5-(6-hydroxynaphthalene-2-yl)phenyl]-N-methylpropionamide]
< 10	< 10			Oc1ccc2cc(-c3cccs3)ccc2c1 [Compound 6]
79.2	63.7			COC(=O)c1csc(S(=O)(=O)Nc2cccc(-c3c(O)ccc4cc(-c5cccc(O)c5)ccc34)c2)c1OC [Compound 78, methyl 5-{3-[2-hydroxy-6-(3-hydroxyphenyl)-1-naphthyl]phenylsulfamoyl}-4-methoxythiophene-3-carboxylate]
< 10	< 10			O=C(O)c1ccc(-c2ccc3cc(O)ccc3c2)cc1 [Compound 8, 4-(6-hydroxy-2-naphthyl)benzoic acid]
< 10	< 10			O=C(Nc1ccc(-c2ccc3cc(O)ccc3c2)cc1O)c1ccccc1 [Compound 36, N-[2-Hydroxy-4-(6-hydroxy-2-naphthyl)phenyl]benzamide]
79.9	73.2			O=[N+]([O-])c1cc(S(=O)(=O)Nc2cccc(-c3c(O)ccc4cc(-c5cccc(O)c5)ccc34)c2)ccc1Cl [Compound 77, 4-chloro-N-{3-[2-hydroxy-6-(3-hydroxyphenyl)-1-naphthyl]phenyl}-3-nitrobenzenesulfonamide]
41.7	14.3			Cc1cc(O)cc(-c2ccc3cc(O)ccc3c2)c1 [Compound 26, 6-(3-Hydroxy-5-methylphenyl)-2-naphthol]
82.4	76.8			O=C(NCCc1ccc(S(=O)(=O)Nc2cccc(-c3c(O)ccc4cc(-c5cccc(O)c5)ccc34)c2)cc1)C(F)(F)F [Compound 88, 2,2,2-trifluoro-N-[2-(4-{3-[2-hydroxy-6-(3-hydroxyphenyl)-1-naphthyl]phenylsulfamoyl}phenyl)ethyl]acetamide]
78.1	49.8			O=[N+]([O-])c1cc(C(F)(F)F)ccc1S(=O)(=O)Nc1cccc(-c2c(O)ccc3cc(-c4cccc(O)c4)ccc23)c1 [Compound 83, 2-nitro-N-{3-[2-hydroxy-6-(3-hydroxyphenyl)-1-naphthyl]phenyl}-4-(trifluoromethyl)benzenesulfonamide]
74.7	66.4			O=C(Nc1nccs1)c1cccc(-c2c(O)ccc3cc(-c4cccc(O)c4)ccc23)c1 [Compound 71, 3-(2-Hydroxy-6-(3-hydroxyphenyl)naphthalene-1-yl)-N-(thiazol-2-yl)benzamide]
62	17			O=C(Nc1ccccc1)c1cc2cc(-c3cccc(O)c3)ccc2cc1O [Compound 38, 3-Hydroxy-7-(3-hydroxyphenyl)-N-phenyl-2-naphthamide]
70	43			Cc1noc(NC(=O)c2c(O)ccc3cc(-c4cccc(O)c4)ccc23)c1C [Compound 47, N-(3,4-Dimethylisoxazol-5-yl)-2-hydroxy-6-(3-hydroxyphenyl)-1-naphthamide]
78.4	40.5			O=S(=O)(Nc1cccc(-c2c(O)ccc3cc(-c4cccc(O)c4)ccc23)c1)c1ccc(Br)cc1OC(F)(F)F [Compound 82, 4-bromo-N-{3-[2-hydroxy-6-(3-hydroxyphenyl)-1-naphthyl]phenyl}-2-(trifluoromethoxy)benzenesulfonamide]
80.5	71.2			O=S(=O)(Nc1cccc(-c2c(O)ccc3cc(-c4cccc(O)c4)ccc23)c1)c1cccc2cccnc12 [Compound 73, N-{3-[2-hydroxy-6-(3-hydroxyphenyl)-1-naphthyl]phenyl}quinoline-8-sulfonamide]
< 10	< 10			Oc1cccc(-c2cnc3ccccc3c2)c1 [Compound 13, 3-(Quinolin-3-yl)phenol]
31.6	< 10			Oc1ccc2cc(-c3cccnc3)ccc2c1 [Compound 4, 3-(6-hydroxy-2-naphthyl)pyridine]

— patent US8546392B2, “17Beta-hydroxysteroid dehydrogenase type 1 inhibitors for the treatment of hormone-related diseases” (Universitaet des Saarlandes, priority 2008, dated 2013)
